The text below walks through data of patent US20230075368A1, “IDENTIFICATION OF AN EGFR-BIN3 PATHWAY THAT ACTIVELY SUPPRESSES INVASION AND REDUCES TUMOR SIZE IN GLIOBLASTOMA” (The United States Govemment as represented by the …, priority 2020, published 2023).

The assay concerns Mayo PDX cells. The assay is described as follows: Matrigel invasion assay. The class given is cell-based, human. The procedure: Invasion status of cells was tested with Matrigel Boyden chamber assays (Fisher). 1×10^5 cells were plated on BD BioCoat Matrigel invasion chambers. 24 hours after treatment with drugs, invaded cells were stained with the HEMA-3 kit (Fisher). Invaded cells were counted in 4-5 random fields.
An equal number of cells (5×10^4) were seeded on Matrigel coated inserts, and were untreated (control vehicle) or stimulated with 50 ng/ml EGF for 24 hours, cells invading to the other side of the membrane were counted and presented as percentage cell invasion. […] A similar invasion assay was conducted on GBM26 cells (FIG. 2D). […] Cells were transfected with EGFR or scrambled siRNA for 48 hours before the invasion assay. A similar invasion assay was performed on GBM6 (FIG. 2G). […] Cells were transiently transfected with empty or EGFR wildtype (EGFRwt) overexpressing vector, and invasion assay was performed after 48 hours after transfection. […] Cells were treated with or without 50 ng/ml EGF for 48 hours before the assay. The Western blot images are representative of three independent biological replicates. Actin served as loading control. Data are represented as mean±SEM from three independent experiments. *P<0.05, **P<0.01, n.s. not significant, unpaired two-tailed Student's t-test.
FIG. 3C and FIG. 3D show the results of a Matrigel invasion assay of EGFR siRNA knockdown in GBM12 and GBM6 in response to EGF. Cells were treated with EGFR or scrambled siRNA for 48 hours, transfected cells were seeded on Matrigel coated inserts and were treated with or without 50 ng/ml EGF for 24 hours. […] Cells were transiently transfected with EGFRvIII expression or empty vector, invasion assay was performed 48 hours after transfection. […] Western blot images are representative of three independent biological replicates. Actin served as a loading control. Data are represented as mean±SEM from three independent experiments. […], **P<0.01, ***P<0.001, n.s. not significant, unpaired two-tailed t-test.

SMILES strings stand for the structures.

With `C#Cc1cccc(Nc2ncnc3cc(OCCOC)c(OCCOC)cc23)c1` [erlotinib, Erlotinib], the cell invasion result runs as follows: (erlotinib 1 μM, 24 hours, GBM12, GBM26) “suppressed the invasiveness”; (erlotinib, 48 h) “returns to baseline”.
